From article PMC8518114, “Safety, tolerability and pharmacokinetics of emodepside, a potential novel treatment for onchocerciasis (river blindness), in healthy male subjects” (British Journal of Clinical Pharmacology, 2021)

System: healthy male subjects
Experiment: Safety: treatment-emergent adverse events, SAD study
Assay type: in vivo, human
Procedure: Safety was assessed by monitoring adverse events (AEs) throughout the studies that were coded using the standard Medical Dictionary for Regulatory Activities (MedDRA) dictionary (versions 19.0 [SAD part 1], 20.0 [SAD part 2] and 21.1 [MAD]). Other safety monitoring included 12‐lead electrocardiography recordings, measurement of vital signs (systolic and diastolic blood pressure and heart rate), physical and neurological (Hamilton depression rating scale[17] and Beck depression inventory‐II fastscreen[18] [SAD only], mental status examination, cranial nerves assessment and motor system examination, sensation to light touch, coordination/cerebellar function assessment, Romberg's test, gait test, daytime sleepiness assessment [SAD and MAD studies]) examinations, haematology, biochemistry and urinalysis. To minimise risks in the SAD and MAD studies, subjects were dosed sequentially using sentinels in each cohort (1 IP, 1 placebo) as per European Medicines Agency guidelines.[19] If the previous dose was well tolerated, with no safety concerns, dose escalation was decided by the Safety Review Group after reviewing safety and PK data from all available cohorts. Moreover, treatment with the highest dose in the SAD study was repeated (cohort 10) for regular ophthalmological evaluations (assessments available as supplementary information) to better characterise visual AEs observed in the SAD study. Regular ophthalmological assessments were also performed in the MAD study.

## CC(C)C[C@H]1C(=O)O[C@H](Cc2ccc(N3CCOCC3)cc2)C(=O)N(C)[C@@H](CC(C)C)C(=O)O[C@H](C)C(=O)N(C)[C@@H](CC(C)C)C(=O)O[C@H](Cc2ccc(N3CCOCC3)cc2)C(=O)N(C)[C@@H](CC(C)C)C(=O)O[C@H](C)C(=O)N1C [emodepside]
SAD Part 1, 0.1 mg LSF n = 1
  Any TEAE: 1 (100) n (%)
  TEAE: Eye disorders: 0 n (%)
  TEAE: Gastrointestinal disorders: 0 n (%)
  TEAE: General disorders and administration site disorders: 0 n (%)
  TEAE: Infections and infestations: 1 (100) n (%)
  TEAE: Injury, poisoning and procedural complications: 0 n (%)
  TEAE: Musculoskeletal and connective tissue disorders: 0 n (%)
  TEAE: Nervous system disorders: 0 n (%)
  TEAE: Psychiatric disorders: 0 n (%)
  TEAE: Respiratory, thoracic and mediastinal disorders: 0 n (%)
SAD Part 1, 1 mg LSF n = 5
  Any TEAE: 3 (60.0) n (%)
  TEAE: Eye disorders: 0 n (%)
  TEAE: Gastrointestinal disorders: 0 n (%)
  TEAE: General disorders and administration site disorders: 0 n (%)
  TEAE: Infections and infestations: 0 n (%)
  TEAE: Injury, poisoning and procedural complications: 0 n (%)
  TEAE: Musculoskeletal and connective tissue disorders: 1 (20.0) n (%)
  TEAE: Nervous system disorders: 2 (40.0) n (%)
  TEAE: Psychiatric disorders: 0 n (%)
  TEAE: Respiratory, thoracic and mediastinal disorders: 0 n (%)
SAD Part 1, 2.5 mg LSF n = 6
  Any TEAE: 0 n (%)
  TEAE: Eye disorders: 0 n (%)
  TEAE: Gastrointestinal disorders: 0 n (%)
  TEAE: General disorders and administration site disorders: 0 n (%)
  TEAE: Infections and infestations: 0 n (%)
  TEAE: Injury, poisoning and procedural complications: 0 n (%)
  TEAE: Musculoskeletal and connective tissue disorders: 0 n (%)
  TEAE: Nervous system disorders: 0 n (%)
  TEAE: Psychiatric disorders: 0 n (%)
  TEAE: Respiratory, thoracic and mediastinal disorders: 0 n (%)
SAD Part 1, 5 mg IRT n = 5
  Any TEAE: 3 (60.0) n (%)
  TEAE: Eye disorders: 1 (20.0) n (%)
  TEAE: Gastrointestinal disorders: 0 n (%)
  TEAE: General disorders and administration site disorders: 0 n (%)
  TEAE: Infections and infestations: 0 n (%)
  TEAE: Injury, poisoning and procedural complications: 0 n (%)
  TEAE: Musculoskeletal and connective tissue disorders: 1 (20.0) n (%)
  TEAE: Nervous system disorders: 1 (20.0) n (%)
  TEAE: Psychiatric disorders: 1 (20.0) n (%)
  TEAE: Respiratory, thoracic and mediastinal disorders: 0 n (%)
SAD Part 1, 5 mg LSF n = 6
  Any TEAE: 3 (50.0) n (%)
  TEAE: Eye disorders: 0 n (%)
  TEAE: Gastrointestinal disorders: 1 (16.7) n (%)
  TEAE: General disorders and administration site disorders: 2 (33.3) n (%)
  TEAE: Infections and infestations: 1 (16.7) n (%)
  TEAE: Injury, poisoning and procedural complications: 0 n (%)
  TEAE: Musculoskeletal and connective tissue disorders: 1 (16.7) n (%)
  TEAE: Nervous system disorders: 1 (16.7) n (%)
  TEAE: Psychiatric disorders: 0 n (%)
  TEAE: Respiratory, thoracic and mediastinal disorders: 0 n (%)
SAD Part 1, 10 mg LSF n = 6
  Any TEAE: 5 (83.3) n (%)
  TEAE: Eye disorders: 2 (33.3) n (%)
  TEAE: Gastrointestinal disorders: 0 n (%)
  TEAE: General disorders and administration site disorders: 0 n (%)
  TEAE: Infections and infestations: 1 (16.7) n (%)
  TEAE: Injury, poisoning and procedural complications: 0 n (%)
  TEAE: Musculoskeletal and connective tissue disorders: 0 n (%)
  TEAE: Nervous system disorders: 1 (16.7) n (%)
